Experimental data: article PMC10716637 (RSC Advances, 2023)
Like-named read-outs stand apart in the source and are kept apart here.

How the values were obtained:
VEGFR-2 = VEGFR-2 (Homo sapiens, UniProt P35968); assay: In vitro VEGFR-2 kinase inhibitory assay; type: biochemical
HepG2 = assay: MTT cytotoxicity assay, HepG2; type: cell-based, human; settings: for EC50: Homo sapiens, HepG2, read-out: EC50 HepG2; for Selectivity index (SI): folds more toxic respecting HepG2 than normal VERO cells: CC50 VERO vs EC50 HepG2
MCF-7 = assay: MTT cytotoxicity assay, MCF-7; type: cell-based, human; settings: for EC50: Homo sapiens, MCF7, read-out: EC50 MCF-7; for Selectivity index (SI): folds toxic in MCF-7 than in normal VERO cells: CC50 VERO vs EC50 MCF-7
HCT116 = assay: MTT cytotoxicity assay, HCT116; type: cell-based, human; settings: for EC50: Homo sapiens, HCT-116, read-out: EC50 HCT116; for Selectivity index (SI): folds lethalness in HCT-116 than in VERO cells: CC50 VERO vs EC50 HCT-116
EGFR^T790M = EGFR^T790M (Homo sapiens, UniProt P00533, T790M); assay: In vitro EGFR^T790M kinase inhibitory assay; type: biochemical
A549 = assay: MTT cytotoxicity assay, A549; type: cell-based, human; settings: for EC50: Homo sapiens, A549, read-out: EC50 A549; for Selectivity index (SI): folds toxicity in A549 than in VERO cells: CC50 VERO vs EC50 A549
EGFR^WT = EGFR^WT (Homo sapiens, UniProt P00533); assay: In vitro EGFR^WT kinase inhibitory assay; type: biochemical
[1] = Cytotoxicity against VERO normal cell lines; settings: African green monkey, VERO normal cells

Chain of EGFR^T790M (P00533 25-1210 T790M): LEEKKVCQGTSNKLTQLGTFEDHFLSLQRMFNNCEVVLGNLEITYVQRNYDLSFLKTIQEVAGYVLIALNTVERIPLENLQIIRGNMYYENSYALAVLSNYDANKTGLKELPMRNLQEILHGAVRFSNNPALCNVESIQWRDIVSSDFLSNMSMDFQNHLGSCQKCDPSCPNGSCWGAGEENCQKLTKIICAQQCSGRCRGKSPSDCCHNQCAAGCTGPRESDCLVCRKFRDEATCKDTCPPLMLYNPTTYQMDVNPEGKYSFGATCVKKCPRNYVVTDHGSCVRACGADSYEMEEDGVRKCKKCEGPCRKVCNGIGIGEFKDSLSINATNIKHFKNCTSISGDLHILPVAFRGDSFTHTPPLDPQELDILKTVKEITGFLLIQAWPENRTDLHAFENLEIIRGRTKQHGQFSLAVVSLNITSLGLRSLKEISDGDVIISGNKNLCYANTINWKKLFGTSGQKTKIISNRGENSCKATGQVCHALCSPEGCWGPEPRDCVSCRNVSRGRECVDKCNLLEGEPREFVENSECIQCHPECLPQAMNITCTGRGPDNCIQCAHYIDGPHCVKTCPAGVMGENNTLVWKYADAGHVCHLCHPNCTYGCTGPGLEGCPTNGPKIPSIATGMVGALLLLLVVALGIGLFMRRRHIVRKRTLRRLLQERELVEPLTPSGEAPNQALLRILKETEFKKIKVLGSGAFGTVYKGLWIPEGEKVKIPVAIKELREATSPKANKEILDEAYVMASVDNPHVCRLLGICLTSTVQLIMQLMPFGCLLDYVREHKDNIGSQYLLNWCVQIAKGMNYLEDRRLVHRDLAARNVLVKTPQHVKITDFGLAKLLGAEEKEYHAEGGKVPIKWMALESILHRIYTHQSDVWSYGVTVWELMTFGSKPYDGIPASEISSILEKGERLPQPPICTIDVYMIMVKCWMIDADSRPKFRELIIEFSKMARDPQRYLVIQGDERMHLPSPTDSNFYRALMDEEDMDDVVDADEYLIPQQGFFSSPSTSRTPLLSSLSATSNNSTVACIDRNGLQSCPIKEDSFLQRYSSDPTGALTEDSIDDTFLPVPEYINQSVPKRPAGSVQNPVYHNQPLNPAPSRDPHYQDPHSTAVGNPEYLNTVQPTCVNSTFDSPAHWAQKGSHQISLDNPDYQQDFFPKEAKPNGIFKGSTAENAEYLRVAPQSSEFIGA
Chain of VEGFR-2 (P35968 20-1356): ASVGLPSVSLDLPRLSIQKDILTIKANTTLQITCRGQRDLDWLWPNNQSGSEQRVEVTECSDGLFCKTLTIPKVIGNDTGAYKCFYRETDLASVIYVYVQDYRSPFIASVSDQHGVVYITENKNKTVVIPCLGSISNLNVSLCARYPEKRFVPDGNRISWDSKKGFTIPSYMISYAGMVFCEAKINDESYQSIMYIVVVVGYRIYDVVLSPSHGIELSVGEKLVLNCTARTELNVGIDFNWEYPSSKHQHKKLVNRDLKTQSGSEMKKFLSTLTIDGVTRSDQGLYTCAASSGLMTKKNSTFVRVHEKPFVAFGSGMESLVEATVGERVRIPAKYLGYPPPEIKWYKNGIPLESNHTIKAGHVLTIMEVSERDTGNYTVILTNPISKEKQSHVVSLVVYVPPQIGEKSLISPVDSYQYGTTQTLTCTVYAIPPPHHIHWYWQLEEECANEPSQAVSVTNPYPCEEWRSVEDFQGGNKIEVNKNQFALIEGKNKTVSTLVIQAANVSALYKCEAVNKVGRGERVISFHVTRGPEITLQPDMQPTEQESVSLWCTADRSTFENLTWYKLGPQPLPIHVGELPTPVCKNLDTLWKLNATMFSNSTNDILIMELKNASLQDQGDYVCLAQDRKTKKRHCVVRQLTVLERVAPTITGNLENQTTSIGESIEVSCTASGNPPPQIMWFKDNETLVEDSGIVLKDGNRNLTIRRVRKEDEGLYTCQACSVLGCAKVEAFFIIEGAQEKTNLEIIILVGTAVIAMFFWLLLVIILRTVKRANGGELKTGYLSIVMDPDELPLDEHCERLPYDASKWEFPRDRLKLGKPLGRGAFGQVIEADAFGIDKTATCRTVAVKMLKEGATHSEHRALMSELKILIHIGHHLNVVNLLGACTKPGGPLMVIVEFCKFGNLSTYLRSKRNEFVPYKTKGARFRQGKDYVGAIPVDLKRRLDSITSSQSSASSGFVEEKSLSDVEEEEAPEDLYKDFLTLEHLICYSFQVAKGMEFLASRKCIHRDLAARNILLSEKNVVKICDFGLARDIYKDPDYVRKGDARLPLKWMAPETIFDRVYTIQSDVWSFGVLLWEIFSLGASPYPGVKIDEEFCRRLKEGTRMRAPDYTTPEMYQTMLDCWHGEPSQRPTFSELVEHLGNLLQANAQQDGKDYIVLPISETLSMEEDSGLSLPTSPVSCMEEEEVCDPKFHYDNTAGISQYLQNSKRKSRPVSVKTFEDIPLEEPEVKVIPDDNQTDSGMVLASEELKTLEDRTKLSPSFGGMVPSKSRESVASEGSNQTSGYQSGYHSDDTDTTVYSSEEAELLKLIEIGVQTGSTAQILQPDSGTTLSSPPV
Chain of EGFR^WT (P00533 25-1210): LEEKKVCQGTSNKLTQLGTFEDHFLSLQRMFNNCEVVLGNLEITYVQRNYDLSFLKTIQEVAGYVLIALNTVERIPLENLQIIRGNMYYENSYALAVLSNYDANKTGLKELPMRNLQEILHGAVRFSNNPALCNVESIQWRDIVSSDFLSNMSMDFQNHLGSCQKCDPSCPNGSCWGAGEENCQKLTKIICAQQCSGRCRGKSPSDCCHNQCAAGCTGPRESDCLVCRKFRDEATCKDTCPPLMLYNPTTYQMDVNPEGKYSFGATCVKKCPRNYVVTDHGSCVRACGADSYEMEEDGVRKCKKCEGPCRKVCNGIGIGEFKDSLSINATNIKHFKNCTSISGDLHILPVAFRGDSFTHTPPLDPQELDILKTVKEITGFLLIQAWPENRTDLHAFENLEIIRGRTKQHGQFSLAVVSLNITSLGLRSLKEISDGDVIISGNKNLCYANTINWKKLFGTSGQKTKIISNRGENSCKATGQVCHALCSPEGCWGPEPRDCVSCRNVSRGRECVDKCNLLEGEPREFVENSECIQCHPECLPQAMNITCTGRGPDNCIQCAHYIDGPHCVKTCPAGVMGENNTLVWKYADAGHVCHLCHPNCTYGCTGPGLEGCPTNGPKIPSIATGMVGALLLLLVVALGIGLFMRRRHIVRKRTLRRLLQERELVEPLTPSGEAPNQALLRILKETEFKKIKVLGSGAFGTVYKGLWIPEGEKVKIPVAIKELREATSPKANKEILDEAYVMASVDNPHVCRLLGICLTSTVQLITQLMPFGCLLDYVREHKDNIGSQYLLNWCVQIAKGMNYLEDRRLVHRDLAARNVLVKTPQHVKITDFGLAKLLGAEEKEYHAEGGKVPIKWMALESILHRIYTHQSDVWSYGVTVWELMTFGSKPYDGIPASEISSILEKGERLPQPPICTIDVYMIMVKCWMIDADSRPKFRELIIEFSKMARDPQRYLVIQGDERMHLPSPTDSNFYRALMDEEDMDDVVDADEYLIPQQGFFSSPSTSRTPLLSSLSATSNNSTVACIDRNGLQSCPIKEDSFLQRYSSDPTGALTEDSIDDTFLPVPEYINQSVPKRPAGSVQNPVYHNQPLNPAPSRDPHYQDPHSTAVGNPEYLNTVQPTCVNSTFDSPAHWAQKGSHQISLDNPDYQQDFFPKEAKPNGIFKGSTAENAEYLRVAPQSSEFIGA

Row | Structure (SMILES) | IC50 (VEGFR-2) | EC50 (HepG2) | EC50 (MCF-7) | EC50 (HCT116) | IC50 (EGFR^T790M) | EC50 (A549) | Selectivity index (SI): folds more toxic respecting HepG2 than normal VERO cells (HepG2) | IC50 (EGFR^WT) | Selectivity index (SI): folds toxic in MCF-7 than in normal VERO cells (MCF-7) | Selectivity index (SI): folds lethalness in HCT-116 than in VERO cells (HCT116) | CC50 [1] | Selectivity index (SI): folds toxicity in A549 than in VERO cells (A549) | IC50 (EGFR^T790M; IC50 EGFR^T790M)
1 | CCn1c(=O)n(CC(=O)Nc2ccc(C(=O)OC)cc2)c(=O)c2cc(I)ccc21 [Compound 5a, Methyl 4-{2-[1-ethyl-6-iodo-2,4-dioxo-1,4-dihydroquinazolin-3(2H)-yl]acetamido}benzoate] | 2 ± 0.25 µM | 12.5 ± 0.7 µM | 11.6 ± 0.7 µM | 11.4 ± 0.7 µM | 0.86 ± 0.5 µM | 8.45 ± 0.7 µM |  |  |  |  |  |  | 
2 | CCOC(=O)c1ccc(NC(=O)Cn2c(=O)c3cc(I)ccc3n(CC)c2=O)cc1 [Compound 5b, Ethyl 4-{2-[1-ethyl-6-iodo-2,4-dioxo-1,4-dihydroquinazolin-3(2H)-yl]acetamido}benzoate] | 1.5 ± 0.1 µM | 7.59 ± 0.7 µM | 7.4 ± 0.7 µM | 6.55 ± 0.7 µM | 0.8 ± 0.5 µM | 6.78 ± 0.7 µM |  |  |  |  |  |  | 
3 | CCCn1c(=O)n(CC(=O)Nc2ccc(C(=O)OC)cc2)c(=O)c2cc(I)ccc21 [Compound 5c, Methyl 4-{2-[6-iodo-2,4-dioxo-1-propyl-1,4-dihydroquinazolin-3(2H)-yl]acetamido}benzoate] | 1.5 ± 0.5 µM | 7.75 ± 0.7 µM | 7.96 ± 0.7 µM | 6.93 ± 0.7 µM | 0.92 ± 0.5 µM | 6.73 ± 0.7 µM |  |  |  |  |  |  | 
4 | CCCn1c(=O)n(CC(=O)Nc2ccc(C(=O)OCC)cc2)c(=O)c2cc(I)ccc21 [Compound 5d, Ethyl 4-{2-[6-iodo-2,4-dioxo-1-propyl-1,4-dihydroquinazolin-3(2H)-yl]acetamido}benzoate] | 1.25 ± 0.1 µM | 7.5 ± 0.7 µM | 7.37 ± 0.7 µM | 6.52 ± 0.7 µM | 0.4 ± 0.35 µM | 6.68 ± 0.7 µM | 6.21 folds | 0.32 ± 0.03 µM | 6.32 folds | 7.15 folds | 46.6 ± 0.5 µM | 6.98 folds | 
5 | CCNC(=O)c1ccc(NC(=O)Cn2c(=O)c3cc(I)ccc3n(CC)c2=O)cc1 [Compound 6a, 4-{2-[1-Ethyl-6-iodo-2,4-dioxo-1,4-dihydroquinazolin-3(2H)-yl]acetamido}-N-ethylbenzamide] | 1.4 ± 0.2 µM | 7.8 ± 0.8 µM | 8.5 ± 0.8 µM | 7.6 ± 0.8 µM | 0.9 ± 0.5 µM | 7.95 ± 0.8 µM |  |  |  |  |  |  | 
6 | CCCn1c(=O)n(CC(=O)Nc2ccc(C(=O)NC)cc2)c(=O)c2cc(I)ccc21 [Compound 6b, 4-{2-[6-Iodo-2,4-dioxo-1-propyl-1,4-dihydroquinazolin-3(2H)-yl]acetamido}-N-methylbenzamide] | 1.65 ± 0.1 µM | 8.5 ± 0.8 µM | 8.15 ± 0.8 µM | 8.35 ± 0.8 µM | 0.6 ± 0.35 µM | 6.7 ± 0.8 µM |  |  |  |  |  |  | 
7 | CCn1c(=O)n(CC(=O)Nc2ccc(C(=O)NN)cc2)c(=O)c2cc(I)ccc21 [Compound 7a, 2-(1-Ethyl-6-iodo-2,4-dioxo-1,4-dihydroquinazolin-3(2H)-yl)-N-(4-(hydrazinecarbonyl)phenyl)-acetamide] | 2.5 ± 0.25 µM | 16 ± 1.5 µM | 15.5 ± 1.5 µM | 13.2 ± 1.5 µM | 1.5 ± 0.5 µM | 13.7 ± 1.5 µM |  |  |  |  |  |  | 
8 | CCCn1c(=O)n(CC(=O)Nc2ccc(C(=O)NN)cc2)c(=O)c2cc(I)ccc21 [Compound 7b, N-[4-(hydrazinecarbonyl)phenyl]-2-(6-iodo-2,4-dioxo-1-propyl-1,4-dihydroquinazolin-3(2H)-yl)acetamide] | 2.25 ± 0.25 µM | 15.5 ± 1.5 µM | 13.9 ± 1.5 µM | 15.9 ± 1.5 µM | 2.05 ± 0.5 µM | 15.1 ± 1.5 µM |  |  |  |  |  |  | 
9 | CCn1c(=O)n(CC(=O)Nc2ccc(-c3nnc(S)o3)cc2)c(=O)c2cc(I)ccc21 [Compound 8a, 2-[1-Ethyl-6-iodo-2,4-dioxo-1,4-dihydroquinazolin-3(2H)-yl]-N-[4-(5-mercapto-1,3,4-oxadiazol-2-yl)phenyl]acetamide] | 1.5 ± 0.1 µM | 7.55 ± 0.9 µM | 8.25 ± 0.9 µM | 7.25 ± 0.9 µM | 1 ± 0.5 µM | 10.1 ± 0.9 µM |  |  |  |  |  |  | 
10 | CCCn1c(=O)n(CC(=O)Nc2ccc(-c3nnc(S)o3)cc2)c(=O)c2cc(I)ccc21 [Compound 8b, 2-[6-Iodo-2,4-dioxo-1-propyl-1,4-dihydroquinazolin-3(2H)-yl]-N-[4-(5-mercapto-1,3,4-oxadiazol-2-yl)phenyl]acetamide] | 1.38 ± 0.1 µM | 7.5 ± 0.7 µM | 7.45 ± 0.7 µM | 6.75 ± 0.7 µM | 0.45 ± 0.35 µM | 6.7 ± 0.5 µM | 6.77 folds | 0.38 ± 0.03 µM | 6.81 folds | 7.52 folds | 50.75 ± 0.5 µM | 7.57 folds | 
11 | CCn1c(=O)n(CC(=O)Nc2ccc(C(=O)NN=Cc3ccccc3)cc2)c(=O)c2cc(I)ccc21 [Compound 9a, N-[4-(2-benzylidenehydrazine-1-carbonyl)phenyl]-2-[1-ethyl-6-iodo-2,4-dioxo-1,4-dihydroquinazolin-3(2H)-yl]acetamide] | 1 ± 0.1 µM | 6.8 ± 0.7 µM | 7.5 ± 0.7 µM | 6.29 ± 0.7 µM | 0.75 ± 0.5 µM | 6.75 ± 0.7 µM | 6.69 folds |  | 6.07 folds | 7.23 folds | 45.5 ± 0.5 µM | 6.74 folds | 1.5 µM
12 | CCn1c(=O)n(CC(=O)Nc2ccc(C(=O)NN=Cc3ccc(C)cc3)cc2)c(=O)c2cc(I)ccc21 [Compound 9b, 2-[1-Ethyl-6-iodo-2,4-dioxo-1,4-dihydroquinazolin-3(2H)-yl]-N-{4-[2-(4-methylbenzylidene)hydrazine-1-carbonyl]phenyl}acetamide] | 0.9 ± 0.1 µM | 6.2 ± 0.7 µM | 6.7 ± 0.6 µM | 5.93 ± 0.6 µM | 0.5 ± 0.35 µM | 6.75 ± 0.6 µM | 7.94 folds | 0.35 ± 0.03 µM | 7.35 folds | 8.31 folds | 49.2 ± 0.5 µM | 7.30 folds | 
13 | CCn1c(=O)n(CC(=O)Nc2ccc(C(=O)NN=Cc3ccc(OC)cc3)cc2)c(=O)c2cc(I)ccc21 [Compound 9c, 2-[1-Ethyl-6-iodo-2,4-dioxo-1,4-dihydroquinazolin-3(2H)-yl]-N-{4-[2-(4-methoxybenzylidene)-hydrazine-1-carbonyl]phenyl}acetamide] | 0.85 ± 0.1 µM | 5 ± 0.5 µM | 6 ± 0.5 µM | 5.17 ± 0.5 µM | 0.22 ± 0.3 µM | 5.25 ± 0.5 µM | 11.00 folds | 0.15 ± 0.03 µM | 9.17 folds | 10.64 folds | 55 ± 0.5 µM | 10.48 folds | 
14 | CCCn1c(=O)n(CC(=O)Nc2ccc(C(=O)NN=Cc3ccccc3)cc2)c(=O)c2cc(I)ccc21 [Compound 9d, N-[4-(2-benzylidenehydrazine-1-carbonyl)phenyl]-2-[6-iodo-2,4-dioxo-1-propyl-1,4-dihydroquinazolin-3(2H)-yl]acetamide] | 0.9 ± 0.1 µM | 5.65 ± 0.5 µM | 6.45 ± 0.5 µM | 6.5 ± 0.5 µM | 0.26 ± 0.3 µM | 5.48 ± 0.5 µM | 8.92 folds | 0.2 ± 0.03 µM | 7.81 folds | 7.75 folds | 50.39 ± 0.5 µM | 9.20 folds | 
15 | CCCn1c(=O)n(CC(=O)Nc2ccc(C(=O)NN=Cc3ccc(Cl)cc3)cc2)c(=O)c2cc(I)ccc21 [Compound 9e, N-{4-[2-(4-chlorobenzylidene)hydrazine-1-carbonyl]phenyl}-2-{6-iodo-2,4-dioxo-1-propyl-1,4-dihydroquinazolin-3(2H)-yl}acetamide] | 1.2 ± 0.1 µM | 7.36 ± 0.7 µM | 7.3 ± 0.7 µM | 6.7 ± 0.7 µM | 0.3 ± 0.3 µM | 6.3 ± 0.7 µM | 6.25 folds | 0.25 ± 0.03 µM | 6.30 folds | 6.87 folds | 46 ± 0.5 µM | 7.30 folds | 
16 | C#Cc1cccc(Nc2ncnc3cc(OCCOC)c(OCCOC)cc23)c1 [Erlotinib, reference compound] |  | 7.73 ± 0.67 µM | 13.9 ± 1.3 µM | 8.2 ± 0.34 µM |  | 5.49 ± 0.45 µM |  |  |  |  |  |  | 
17 | CNC(=O)c1cc(Oc2ccc(NC(=O)Nc3ccc(Cl)c(C(F)(F)F)c3)cc2)ccn1 [Sorafenib, reference compound] |  | 4 ± 0.33 µM |  | 5.58 ± 0.55 µM |  | 4.04 ± 0.33 µM |  |  |  |  |  |  | 
